Consider 31 molecules from patent US11078170B2 (Assembly Biosciences, Inc., priority 2017, dated 2021).

In the experiment the test system is HBV viral production from HepAD38 cells. Nature of the experiment: Activity of test compounds on viral production from HepAD38 cells (viral load by qPCR of HBV core sequence in supernatant). The conditions noted are these: Hepatitis B virus, 120 h, 5 days incubation, HBV DNA in supernatant by qPCR, top concentration 10 μM, read-out: Viral Load EC50 Activity range. The experiment is classed as cell-based. The essentials: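 HepAD38 cells, 50,000/well in tetracycline-free 2% FBS medium, treated 5 days at 37° C. with compound from 10 μM top concentration. HBV DNA in supernatant quantified by TaqMan qPCR of core sequence against DNA standards, relative to DMSO wells; CellTiter-Glo viability read in parallel. EC50/CC50 from four-parameter logistic fit.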
Background: In qPCR the cycle at which signal appears reflects the starting amount.
The EC50 is the midpoint of the concentration-response curve. On to `CN1[C@H](C(=O)Nc2ccc(F)c(Cl)c2)C[C@H](c2ccc(-c3c[nH]cn3)s2)NS1(=O)=O` [HBV-CSU-331-ISO-I, Cis-5-(5-(1H-imidazol-4-yl)thiophen-2-yl)-N-(3-chloro-4-fluorophenyl)-2-methyl-1,2,6-thiadiazinane-3-carboxamide 1,1-dioxide], for which the EC50 was under 1000 nM.

With `Cc1c(-c2csc([C@H]3C[C@@H](C(=O)Nc4ccc(F)c(Cl)c4)N(C)S(=O)(=O)N3)c2)cnn1C` [HBV-CSU-315-ISO-I, Cis-N-(3-chloro-4-fluorophenyl)-5-(4-(1,5-dimethyl-1H-pyrazol-4-yl)thiophen-2-yl)-2-methyl-1,2,6-thiadiazinane-3-carboxamide 1,1-dioxide], the EC50 was under 1000 nM.

Regarding `CN1C(C(=O)Nc2ccc(F)c(Cl)c2)CC(c2ccc(Br)c(F)c2)NS1(=O)=O` (stereo not drawn) [HBV-CSU-283, Cis-5-(4-Bromo-3-fluorophenyl)-N-(3-chloro-4-fluorophenyl)-2-methyl-1,2,6-thiadiazinane-3-carboxamide 1,1-dioxide], the EC50 is under 1000 nM.

In the case of `CN1C(C(=O)Nc2ccc(F)c(Cl)c2)CC(c2ccccn2)NS1(=O)=O` (racemic) [HBV-CSU-031, Cis-N-(3-Chloro-4-fluorophenyl)-2-methyl-5-(pyridin-2-yl)-1,2,6-thiadiazinane-3-carboxamide 1,1-dioxide], the EC50 was under 1000 nM.

Take `CN1C(C(=O)Nc2ccc(F)c(Br)c2)CC(c2ccc(F)cc2)NS1(=O)=O` (racemic) [HBV-CSU-211, Cis-N-(3-Bromo-4-fluorophenyl)-5-(4-fluorophenyl)-2-methyl-1,2,6-thiadiazinane-3-carboxamide 1,1-dioxide]: the EC50 was under 1000 nM.

With `CN1[C@H](C(=O)Nc2ccc(F)c(Cl)c2)C[C@H](c2ncc(-c3cccs3)s2)NS1(=O)=O` [HBV-CSU-178-ISO-I, Cis-N-(3-Chloro-4-fluorophenyl)-2-methyl-5-(5-(thiophen-2-yl)thiazol-2-yl)-1,2,6-thiadiazinane-3-carboxamide 1,1-dioxide], the EC50 was under 1000 nM.

In the case of `[2H]C1[C@]([2H])(C(=O)Nc2ccc(F)c(Cl)c2)N(C([2H])([2H])[2H])S(=O)(=O)N[C@]1([2H])c1ccc(-c2cnn(C([2H])([2H])[2H])c2)s1` (stereo in doubt) [HBV-CSU-379-ISO-II, Cis-N-(3-Chloro-4-fluorophenyl)-2-(methyl-d3)-5-(5-(1-(methyl-d3)-1H-pyrazol-4-yl)thiophen-2-yl)-1,2,6-thiadiazinane-3,4,5-d3-3-carboxamide 1,1-dioxide], the EC50 is under 1000 nM.

With `CN1[C@@H](C(=O)Nc2ccc(F)c(Cl)c2)C[C@@H](c2cc(-c3ccccn3)cs2)NS1(=O)=O` [HBV-CSU-168-ISO-I, Cis-N-(3-chloro-4-fluorophenyl)-2-methyl-5-(4-(pyridin-2-yl)thiophen-2-yl)-1,2,6-thiadiazinane-3-carboxamide 1,1-dioxide], the EC50 fell in the range of 1000 to 5000 nM.

Take `CN1[C@H](C(=O)Nc2ccc(F)c(Cl)c2)C[C@H](c2cc(-c3ccc(F)cc3)cs2)NS1(=O)=O` [HBV-CSU-239-ISO-I]: the EC50 was under 1000 nM.

In the case of `CN1[C@@H](C(=O)Nc2cc(F)c(F)c(F)c2)C[C@@H](c2ccc(F)cc2)NS1(=O)=O` [HBV-CSU-212-ISO-II, Cis-5-(4-Fluorophenyl)-2-methyl-N-(3,4,5-trifluorophenyl)-1,2,6-thiadiazinane-3-carboxamide 1,1-dioxide], the EC50 was over 5000 nM.

`CN1C(C(=O)Nc2ccc(F)c(Cl)c2)CC(c2cccc(OC(F)(F)F)c2)NS1(=O)=O` (racemic) [HBV-CSU-262, Cis-N-(3-Chloro-4-fluorophenyl)-2-methyl-5-(3-(trifluoromethoxy)phenyl)-1,2,6-thiadiazinane-3-carboxamide 1,1-dioxide]: the EC50 was under 1000 nM.

With `CN1[C@H](C(=O)Nc2ccc(F)c(Cl)c2)C[C@H](c2ccc(F)cn2)NS1(=O)=O` [HBV-CSU-032-ISO-I, Cis-N-(3-Chloro-4-fluorophenyl)-5-(5-fluoropyridin-2-yl)-2-methyl-1,2,6-thiadiazinane-3-carboxamide 1,1-dioxide], the EC50 is under 1000 nM.

On to `CN1C(C(=O)Nc2ccc(F)c(Cl)c2)CC(c2nc(Br)cs2)NS1(=O)=O` (racemic) [HBV-CSU-150, Cis-5-(4-Bromothiazol-2-yl)-N-(3-chloro-4-fluorophenyl)-2-methyl-1,2,6-thiadiazinane-3-carboxamide 1,1-dioxide], for which the EC50 was under 1000 nM.

For the molecule `CN1[C@H](C(=O)Nc2ccc(F)c(Cl)c2)C[C@H](c2ccc(-c3ccc(F)cn3)s2)NS1(=O)=O` [HBV-CSU-242-ISO-I, Cis-N-(3-chloro-4-fluorophenyl)-5-(5-(5-fluoropyridin-2-yl)thiophen-2-yl)-2-methyl-1,2,6-thiadiazinane-3-carboxamide 1,1-dioxide], the EC50 is under 1000 nM.

For the molecule `COc1ccc(-c2csc(C3CC(C(=O)Nc4ccc(F)c(Cl)c4)N(C)S(=O)(=O)N3)c2)cc1` (stereo not shown) [HBV-CSU-241], the EC50 was under 1000 nM.

As to `CN1C(C(=O)Nc2ccc(F)c(Cl)c2)CC(c2ccc(-c3cnn(C)c3)s2)NS1(=O)=O` (racemic) [HBV-CSU-161, Cis-N-(3-chloro-4-fluorophenyl)-2-methyl-5-(5-(1-methyl-1H-pyrazol-4-yl)thiophen-2-yl)-1,2,6-thiadiazinane-3-carboxamide 1,1-dioxide], the EC50 is under 1000 nM.

`Cc1c(-c2csc([C@@H]3C[C@H](C(=O)Nc4ccc(F)c(Cl)c4)N(C)S(=O)(=O)N3)c2)cnn1C` (relative stereo) [HBV-CSU-315-ISO-II, Cis-N-(3-chloro-4-fluorophenyl)-5-(4-(1,5-dimethyl-1H-pyrazol-4-yl)thiophen-2-yl)-2-methyl-1,2,6-thiadiazinane-3-carboxamide 1,1-dioxide]: the EC50 is under 1000 nM.

Take `CN1C(C(=O)Nc2ccc(F)c(Cl)c2)CC(c2cc(Cl)c(Br)s2)NS1(=O)=O` (stereo not drawn) [HBV-CSU-329, Cis-5-(5-bromo-4-chlorothiophen-2-yl)-N-(3-chloro-4-fluorophenyl)-2-methyl-1,2,6-thiadiazinane-3-carboxamide 1,1-dioxide]: the EC50 is under 1000 nM.

Consider `COCCN1[C@@H](C(=O)Nc2ccc(F)c(Cl)c2)C[C@@H](c2cccs2)NS1(=O)=O` [HBV-CSU-025-ISO-I, Cis-N-(3-chloro-4-fluorophenyl)-2-(2-methoxyethyl)-5-(thiophen-2-yl)-1,2,6-thiadiazinane-3-carboxamide 1,1-dioxide], for which the EC50 is over 5000 nM.

As for `COc1ccc(-c2csc([C@H]3C[C@@H](C(=O)Nc4ccc(F)c(Cl)c4)N(C)S(=O)(=O)N3)c2)cc1` [HBV-CSU-241-ISO-I], the EC50 was under 1000 nM.

As to `CN1C(C(=O)Nc2ccc(F)c(Cl)c2)CC(c2cnc(-c3ccccc3)s2)NS1(=O)=O` (stereo not shown) [HBV-CSU-235, N-(3-Chloro-4-fluorophenyl)-2-methyl-5-(2-phenylthiazol-5-yl)-1,2,6-thiadiazinane-3-carboxamide 1,1-dioxide], the EC50 was under 1000 nM.

On to `Cc1ccc([C@H]2C[C@@H](C(=O)Nc3ccc(F)c(Cl)c3)N(C)S(=O)(=O)N2)s1` [HBV-CSU-115-ISO-I, Cis-N-(3-chloro-4-fluorophenyl)-2-methyl-5-(5-methylthiophen-2-yl)-1,2,6-thiadiazinane-3-carboxamide 1,1-dioxide], for which the EC50 was under 1000 nM.

Regarding `CN1C(C(=O)Nc2ccc(F)c(Cl)c2)CC(c2cc(-c3ccc(F)cc3)cs2)NS1(=O)=O` (stereo not shown) [HBV-CSU-239], the EC50 was under 1000 nM.

Consider `CN1[C@@H](C(=O)Nc2ccc(F)c(Cl)c2)C[C@@H](c2ccnn2C)NS1(=O)=O` [HBV-CSU-054-ISO-I, Cis-N-(3-Chloro-4-fluorophenyl)-2-methyl-5-(1-methyl-1H-pyrazol-5-yl)-1,2,6-thiadiazinane-3-carboxamide 1,1-dioxide], for which the EC50 was over 5000 nM.

For `CN1C(C(=O)Nc2ccc(F)c(Cl)c2)CC(c2ccc(O)c(Cl)c2)NS1(=O)=O` (stereo not drawn) [HBV-CSU-220, Cis-N-(3-chloro-4-fluorophenyl)-5-(3-chloro-4-hydroxyphenyl)-2-methyl-1,2,6-thiadiazinane-3-carboxamide 1,1-dioxide], the EC50 is under 1000 nM.

With `CN1[C@H](C(=O)Nc2ccc(F)c(Cl)c2)C[C@H](c2cccc(F)c2)NS1(=O)=O` (relative stereo) [HBV-CSU-231-ISO-I, Cis-N-(3-Chloro-4-fluorophenyl)-5-(3-fluorophenyl)-2-methyl-1,2,6-thiadiazinane-3-carboxamide 1,1-dioxide], the EC50 was under 1000 nM.

On to `CN1[C@H](C(=O)Nc2ccc(F)c(Br)c2)C[C@H](c2nccs2)NS1(=O)=O` [HBV-CSU-060-ISO-II, Cis-N-(3-bromo-4-fluorophenyl)-2-methyl-5-(thiazol-2-yl)-1,2,6-thiadiazinane-3-carboxamide 1,1-dioxide], for which the EC50 was under 1000 nM.

For the molecule `[2H]C([2H])([2H])N1[C@@H](C(=O)Nc2ccc(F)c(Cl)c2)C[C@@H](c2ccc(Br)s2)NS1(=O)=O` (relative stereo) [HBV-CSU-370-ISO-II, Cis-5-(5-bromothiophen-2-yl)-N-(3-chloro-4-fluorophenyl)-2-(methyl-d3)-1,2,6-thiadiazinane-3-carboxamide 1,1-dioxide], the EC50 lay in the range of 1000 to 5000 nM.

Turning to `CN1C(C(=O)Nc2ccccc2)CC(c2cccs2)NS1(=O)=O` (stereo not drawn) [HBV-CSU-006, Cis-2-Methyl-N-phenyl-5-(thiophen-2-yl)-1,2,6-thiadiazinane-3-carboxamide 1,1-dioxide], the EC50 is under 1000 nM.

As for `O=C(Nc1ccc(F)c(Cl)c1)[C@H]1C[C@@H](c2nccs2)NS(=O)(=O)N1CCOC(F)(F)F` [HBV-CSU-072-ISO-I, Cis-N-(3-Chloro-4-fluorophenyl)-5-(thiazol-2-yl)-2-(2-(trifluoromethoxy)ethyl)-1,2,6-thiadiazinane-3-carboxamide 1,1-dioxide], the EC50 is over 5000 nM.

With `CN1[C@@H](C(=O)Nc2ccc(F)c(Cl)c2)C[C@@H](c2ccc(C(F)(F)F)cc2)NS1(=O)=O` (stereo in doubt) [HBV-CSU-217-ISO-II, Cis-N-(3-Chloro-4-fluorophenyl)-2-methyl-5-(4-(trifluoromethyl)phenyl)-1,2,6-thiadiazinane-3-carboxamide 1,1-dioxide], the EC50 was under 1000 nM.
